Measurements reported in patent US12569471B2, “Method of treatment of CNS disorders” (Supernus Pharmaceuticals, Inc., priority 2009, dated 2026).

Tests used:
[1] = biological target: T1, μ-opioid receptors in the guinea pig ileum (Cavia porcellus, UniProt A0ACM8Q262); test: μ-opioid receptor bioassay, test for agonist activity (twitch contraction amplitude); conditions: for agonist activity: decrease in twitch contraction amplitude, +Naloxone / agonist activity: decrease in twitch contraction amplitude: mean, n=2
human μ-opioid receptor = biological target: T2, human μ-opioid receptor (Homo sapiens, UniProt P35372); test: heterologous competition (displacement) assay and IC50 determination, μ-opioid receptor; type: binding; design: binding at the μ-opioid receptor (specific binding), 1st test / binding at the μ-opioid receptor (specific binding), 2nd Test / binding at the μ-opioid receptor (specific binding), Mean: unit not given here
T2 construct: expressed in transfected cells; host or cells: CHO cell line
Experimental: (§1) A heterologous competition assay was used to determine the relative affinity of mazindol for opioid receptors. Briefly, recombinant μ-, κ- or δ-opioid receptors were expressed in a CHO cell line. The receptors were then saturated with a tritiated receptor-specific ligand at concentrations known to be saturating. Thereupon, 10 μM mazindol was added to the cells in the presence of non-specific ligand and incubated. In this way, mazindol was allowed to “compete” with the receptor-specific ligand, such that greater displacement (i.e., % inhibition) is indicative of greater binding strength of mazindol at a given receptor. “Specific binding” refers here to the difference in the binding of the ligand to the receptors in the presence or absence of an excess of the mazindol.
For this experiment, a range of mazindol concentrations was selected for the ligand blocking assay. The IC50 was determined using non-linear regression analysis of the competition curves using a Hill equation curve fitting (Y=D+[(A−D)/(1+(C/C50)nH)], where Y=specific binding, D=minimum specific binding, A=maximum specific binding, C=compound concentration, C50=IC50, and nH=slope factor). The inhibition constants Ki were calculated using Cheng Prusoff equation. Ki is defined as the concentration of the competing ligand (mazindol) that bound to half the binding sites at equilibrium in the absence of radioligand or other competitors.

[2] = biological target: serotonergic reuptake transporter (Homo sapiens, UniProt P31645); conditions: background statement; cited from earlier work
[3] = biological target: T3, Kappa (rat) opioid receptor (Rattus norvegicus, UniProt P34975); test: heterologous competition (displacement) assay, kappa opioid receptor; type: binding; conditions: 10 μM mazindol; [3H]U 69593 1 nM; 60 min/22° C.
T3 construct: expressed in transfected cells; host or cells: CHO cell line
Experimental: as §1

[4] = biological target: noradrenergic reuptake transporter (Homo sapiens, UniProt P23975); conditions: background statement; cited from earlier work
H1 receptor = H1 receptor (Homo sapiens, UniProt P35367); conditions: background statement; cited from earlier work
[5] = biological target: dopamine reuptake transporter (Homo sapiens, UniProt Q01959); conditions: background statement; cited from earlier work
[6] = biological target: T4, Delta2(h) opioid receptor (Homo sapiens, UniProt P41143); test: heterologous competition (displacement) assay, delta opioid receptor; type: binding; conditions: 10 μM mazindol; [3H] [D-Ala2, D-Leu5] enkephalin 0.5 nM; 120 min/22° C.
T4 construct: expressed in transfected cells; host or cells: CHO cell line
Experimental: as §1

[7] = biological target: T1, μ-opioid receptors in the guinea pig ileum; test: μ-opioid receptor bioassay, test for antagonist activity (DAMGO-induced decrease in twitch contraction amplitude); conditions: for antagonist activity: response to DAMGO (1.0E−07M) in presence of compound: mean, n=2

C[C@@H](NC(=O)[C@@H](N)Cc1ccc(O)cc1)C(=O)NCC(=O)N(C)[C@@H](Cc1ccccc1)C(=O)NCCO [DAMGO]
agonist activity: decrease in twitch contraction amplitude, +Naloxone ([1]; compound 1.0E−07M + Naloxone (1.0E−07M)): −10% of the control response to DAMGO | agonist activity: decrease in twitch contraction amplitude ([1]; compound 1.0E−07 M): 104% of the control response to DAMGO | agonist activity: decrease in twitch contraction amplitude ([1]; compound 1.0E−08 M): 62% of the control response to DAMGO | agonist activity: decrease in twitch contraction amplitude ([1]; compound 1.0E−09 M): 14% of the control response to DAMGO

OC1(c2ccc(Cl)cc2)c2ccccc2C2=NCCN21 (stereo not shown) [mazindol, 5-(p-chloropheny)-2,5-dihydro-3H-imidazo[2,1-a] isoindol-5-ol]
IC50 (human μ-opioid receptor): 690 nM | Ki (human μ-opioid receptor): 280 nM | inhibition at 10 µM (human μ-opioid receptor; 10 μM mazindol, [3H] Ala2-MePhe4-Gly5-Enkephalin 0.5 nM, 120 min/22° C.): 84% | nH (slope factor) (human μ-opioid receptor; M (h) (MOP) (agonist site)): 0.8 | binding at the μ-opioid receptor (specific binding), 1st test (human μ-opioid receptor; mazindol 1.0E−04 M): 5.8 | binding at the μ-opioid receptor (specific binding), 2nd Test (human μ-opioid receptor; mazindol 1.0E−04 M): 7.4 | binding at the μ-opioid receptor (specific binding), Mean (human μ-opioid receptor; mazindol 1.0E−04 M): 6.6 | binding at the μ-opioid receptor (specific binding), 1st test (human μ-opioid receptor; mazindol 1.0E−05 M): 12.6 | binding at the μ-opioid receptor (specific binding), 2nd Test (human μ-opioid receptor; mazindol 1.0E−05 M): 13.0 | binding at the μ-opioid receptor (specific binding), Mean (human μ-opioid receptor; mazindol 1.0E−05 M): 12.8 | binding at the μ-opioid receptor (specific binding), 1st test (human μ-opioid receptor; mazindol 1.0E−06 M): 42.4 | binding at the μ-opioid receptor (specific binding), 2nd Test (human μ-opioid receptor; mazindol 1.0E−06 M): 41.7 | binding at the μ-opioid receptor (specific binding), Mean (human μ-opioid receptor; mazindol 1.0E−06 M): 42.0 | binding at the μ-opioid receptor (specific binding), 1st test (human μ-opioid receptor; mazindol 1.0E−07 M): 83.2 | binding at the μ-opioid receptor (specific binding), 2nd Test (human μ-opioid receptor; mazindol 1.0E−07 M): 83.2 | binding at the μ-opioid receptor (specific binding), Mean (human μ-opioid receptor; mazindol 1.0E−07 M): 83.2 | binding at the μ-opioid receptor (specific binding), 1st test (human μ-opioid receptor; mazindol 3.0E−05 M): 9.1 | binding at the μ-opioid receptor (specific binding), 2nd Test (human μ-opioid receptor; mazindol 3.0E−05 M): 7.6 | binding at the μ-opioid receptor (specific binding), Mean (human μ-opioid receptor; mazindol 3.0E−05 M): 8.3 | binding at the μ-opioid receptor (specific binding), 1st test (human μ-opioid receptor; mazindol 3.0E−06 M): 24.7 | binding at the μ-opioid receptor (specific binding), 2nd Test (human μ-opioid receptor; mazindol 3.0E−06 M): 26.4 | binding at the μ-opioid receptor (specific binding), Mean (human μ-opioid receptor; mazindol 3.0E−06 M): 25.5 | binding at the μ-opioid receptor (specific binding), 1st test (human μ-opioid receptor; mazindol 3.0E−07 M): 58.2 | binding at the μ-opioid receptor (specific binding), 2nd Test (human μ-opioid receptor; mazindol 3.0E−07 M): 60.9 | binding at the μ-opioid receptor (specific binding), Mean (human μ-opioid receptor; mazindol 3.0E−07 M): 59.5 | binding at the μ-opioid receptor (specific binding), 1st test (human μ-opioid receptor; mazindol 3.0E−08 M): 102.1 | binding at the μ-opioid receptor (specific binding), 2nd Test (human μ-opioid receptor; mazindol 3.0E−08 M): 97.5 | binding at the μ-opioid receptor (specific binding), Mean (human μ-opioid receptor; mazindol 3.0E−08 M): 99.8 | binding activity at serotonergic reuptake transporter [2]: specific inhibitory binding activity | % Inhib. [3]: 33% | binding activity at noradrenergic reuptake transporter [4]: specific inhibitory binding activity | binding at the H1 receptor (H1 receptor): moderately potent binding | binding activity at dopamine reuptake transporter [5]: specific inhibitory binding activity | inhibition at 10 µM [6]: 14% | agonist activity: decrease in twitch contraction amplitude ([1]; compound 1.0E−05 M): 94% of the control response to DAMGO | agonist activity: decrease in twitch contraction amplitude ([1]; compound 1.0E−06 M): 25% of the control response to DAMGO | agonist activity: decrease in twitch contraction amplitude ([1]; compound 1.0E−07 M): 1% of the control response to DAMGO | agonist activity: decrease in twitch contraction amplitude, +Naloxone ([1]; compound 3.0E−05M + Naloxone (1.0E−07M)): 5% of the control response to DAMGO | agonist activity: decrease in twitch contraction amplitude ([1]; compound 3.0E−05 M): 103% of the control response to DAMGO | agonist activity: decrease in twitch contraction amplitude ([1]; compound 3.0E−06 M): 64% of the control response to DAMGO | agonist activity: decrease in twitch contraction amplitude ([1]; compound 3.0E−07 M): 9% of the control response to DAMGO | effect on twitch contraction amplitude ([1]; guinea pig ileum): concentration-dependent decrease in the twitch contraction amplitude | nature of the binding (agonist or antagonist) at the μ-opioid receptors ([1]; guinea pig ileum): behaves as an agonist | reversal of the agonist-like response by reference antagonist naloxone ([1]; guinea pig ileum): fully reversed by naloxone | EC50 ([1]; read-out: Agonist activity EC50 value, guinea pig ileum, linear regression of concentration-response curve): 2000 nM | antagonist activity: response to DAMGO (1.0E−07M) in presence of compound ([7]; compound 1.0E−05 M): 105% of the control response to DAMGO | antagonist activity: response to DAMGO (1.0E−07M) in presence of compound ([7]; compound 1.0E−06 M): 100% of the control response to DAMGO | antagonist activity: response to DAMGO (1.0E−07M) in presence of compound ([7]; compound 1.0E−07 M): 100% of the control response to DAMGO | antagonist activity: response to DAMGO (1.0E−07M) in presence of compound ([7]; compound 3.0E−05 M): 107% of the control response to DAMGO | antagonist activity: response to DAMGO (1.0E−07M) in presence of compound ([7]; compound 3.0E−06 M): 102% of the control response to DAMGO | antagonist activity: response to DAMGO (1.0E−07M) in presence of compound ([7]; compound 3.0E−07 M): 100% of the control response to DAMGO | Antagonist activity IC50 value ([7]; guinea pig ileum): no antagonist effect | concentrations causing a further decrease in twitch contraction amplitude beyond DAMGO ([7]; guinea pig ileum): higher than 1.0E-06 M | effect on the DAMGO-induced decrease in twitch contraction amplitude ([7]; guinea pig ileum): did not reverse the DAMGO-induced decrease in twitch contraction amplitude
